# Test results: PMC3497310, “Binding of the Phage Display Derived Peptide CaIX-P1 on Human Colorectal Carcinoma Cells Correlates with the Expression of Carbonic Anhydrase IX” (International Journal of Molecular Sciences, 2012)
# Where no end group is shown, it is not given here.
# Experiments:
# HCT116 cells [1] = assay: Fluorescence microscopy of cell labeling; format: cell-based, human; details: HCT116 cells grown to high density; 1 h at 37 °C; medium without FCS; 100 μL of 10^-4-10^-5 M stock in 1 mL; after fixation
# Experimental: Human colorectal carcinoma HCT116 cells were seeded in culture plates (1,000,000–2,000,000 cells/well in 3 mL medium) containing glass coverslips and were allowed to grow for 48 h. The medium was replaced by 900 μL fresh medium (without FCS) and 100 μL 10^−4–10^−5 M sterilized stock solution of FITC-labeled-CaIX-P1 or fluorescein at the same concentration was added to the cells. The plates were incubated for 1 h at 37 °C. After incubation the cells were washed thrice with 1 mL ice cold PBS (pH 7.4). Subsequently the cells were fixed with 2% formaldehyde in PBS (pH 7.4) at […] for 20 min. This procedure was performed on ice. The cells were washed with ice cold PBS (1 × 600 μL, pH 7.4) and the cover slips were mounted on a slice with DAKO fluorescent medium. Cells were photographed using a Leica DM-RA2 fluorescence microscope. Digitalized figures were processed using standard imaging software (Adobe Photoshop 6.0/Illustrator 9.0).
# HCT116 cells [2] = format: binding, human; details: 48 h
# Experimental: (§1) 300,000 and 2,000,000 human colorectal carcinoma HCT116 and pancreatic carcinoma BxPC3 cells were cultivated in 6-well plates for 48 h. RPMI 1640 medium with 1% BSA was used for cell blocking. Thereafter, 1 mL RPMI 1640 medium containing about 1.0 × 10^6 cpm ^125I-labeled peptide (specific activity ~50 GBq/μmol) was added and cell incubation was carried out for various time periods (10-120 min). To characterize the specificity of radioligand binding, co-incubation with unlabeled CaIX-P1 at various concentrations (10^-4 to 10^-9 mol/L) was performed. After incubation the cells were washed with ice cold PBS and lysed with 0.5 mL NaOH 0.3 mol/L. The lysate was collected and the radioactivity was measured with a γ-counter ([…]; Berthold Technologies). Bound radioactivity, representing the amount of peptide accumulation on HCT116 cells, was calculated as percentage applied dose per 10^6 cells. Binding specificity was further determined using octreotide, HBP-1 and VA131 as negative control competitors at the same concentration as CaIX-P1. All binding and competition experiments were performed in serum free medium in order to avoid peptide degradation by serum proteases.
# [3] = serum stability; rapid degradation by serum proteases; cited from earlier work
# HCT116 cells [4] = assay: In vitro binding kinetics of 125I-CaIX-P1 at two cell densities; parameters: species or system human; details: 300,000 vs 2,000,000 cells cultivated 48 h; incubation 10-120 min; serum free medium; uptake as percent applied dose per 10^6 cells; p < 0.05
# Experimental: as §1
# BxPC3 cells = assay: In vitro binding kinetics of 125I-CaIX-P1 at two cell densities (negative control cells); parameters: species or system human; details: 300,000 vs 2,000,000 cells cultivated 48 h, incubation 10-120 min, serum free medium
# Experimental: as §1
compound,measurement,setting,value
O=C1OC2(c3ccc(O)cc3Oc3cc(O)ccc32)c2ccccc21 [fluorescein],fluorescence signal of cells,HCT116 cells [1],strongly decreased signal to the background level
YNTNHVPLSPKY [CaIX-P1],IC50,HCT116 cells [2],1000 to 5000 nM
same,half-life in serum,[3],about 25 min
"YNTNHVPLSPKY [^125I-CaIX-P1, CaIX-P1 radiolabeled with 125I using the chloramine T method]",binding of 125I-CaIX-P1 per 10^6 HCT116 cells with increasing cell density,HCT116 cells [4],significantly increased binding
same,binding of 125I-CaIX-P1 on BxPC3 cells at different cell densities,BxPC3 cells,strongly decreased binding to the background level
